# Patent US12077503B2, “Substituted cyclic amides and their use as herbicides” (FMC CORPORATION, priority 2015, dated 2024)
# Tests used:
# Assay type in all cases: in vivo
# [1] = test system: barnyardgrass (Echinochloa crus-galli); assay: Test B flooded paddy test; details: Echinochloa crus-galli, 250 g ai/ha, Flood; 0 to 100 scale where 0 is no effect and 100 is complete control; read-out: Barnyardgrass plant response rating
# Summary of the method: (§1)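 Greenhouse paddy pots with 2-leaf stage plants received compound by direct addition to floodwater 3 cm deep, kept at that level. Scored visually at 13–15 d versus controls (0 no effect; 100 complete control).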
# [2] = test system: sedge, umbrella (small-flower umbrella sedge, Cyperus difformis); assay: Test B flooded paddy test; details: Cyperus difformis, 250 g ai/ha, Flood; 0 to 100 scale where 0 is no effect and 100 is complete control; read-out: Sedge, Umbrella plant response rating
# Summary of the method: as §1
# [3] = test system: ducksalad (Heteranthera limosa); assay: Test B flooded paddy test; details: Heteranthera limosa, 250 g ai/ha, Flood; 0 to 100 scale where 0 is no effect and 100 is complete control; read-out: Ducksalad plant response rating
# Summary of the method: as §1
# rice (Oryra sativa) = assay: Test B flooded paddy test; details: Oryza sativa, 250 g ai/ha, Flood; 0 to 100 scale where 0 is no effect and 100 is complete control; read-out: Rice plant response rating
# Summary of the method: as §1
# [4] = test system: pigweed (Amaranthus retroflexus); assay: Test A preemergence; details: Amaranthus retroflexus, pre-emergence, 240 h, preemergence, 0 to 100 scale where 0 is no effect and 100 is complete control, read-out: Pigweed plant response rating; for pest or weed control at 125 g/ha: 125 g ai/ha; for pest or weed control at 500 g/ha: 500 g ai/ha
# [5] = test system: pigweed (Amaranthus retroflexus); assay: Test A postemergence; details: Amaranthus retroflexus, post-emergence, 240 h, postemergence; for pest or weed control at 125 g/ha: 125 g ai/ha, visual injury vs untreated controls after approx. 10 d, 0 = no effect, 100 = complete control, read-out: Pigweed plant response rating (0 to 100 scale); for pest or weed control at 500 g/ha: 500 g ai/ha, 0 to 100 scale, 0 is no effect, 100 is complete control, read-out: Pigweed plant response rating
# Summary of the method: (§2)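 Greenhouse, ~10 d after spray; visual injury vs untreated controls, 0 = no effect, 100 = complete control. Preemergence: directed soil spray over planted seeds. Postemergence: plants 2–10 cm, 1–2 leaf stage. Loam/sand blend. Compound in non-phytotoxic solvent with surfactant.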
# [6] = test system: ragweed (common ragweed, Ambrosia elatior); assay: Test A postemergence; details: Ambrosia artemisiifolia, post-emergence, 240 h, postemergence; for pest or weed control at 125 g/ha: 125 g ai/ha, visual injury vs untreated controls after approx. 10 d, 0 = no effect, 100 = complete control, read-out: Ragweed plant response rating (0 to 100 scale); for pest or weed control at 500 g/ha: 500 g ai/ha, 0 to 100 scale, 0 is no effect, 100 is complete control, read-out: Ragweed plant response rating
# Summary of the method: as §2
# [7] = test system: Galium (catchweed bedstraw, Galium aparine); assay: Test A postemergence; details: Galium, post-emergence, 240 h, postemergence; for pest or weed control at 125 g/ha: 125 g ai/ha, visual injury vs untreated controls after approx. 10 d, 0 = no effect, 100 = complete control, read-out: Galium plant response rating (0 to 100 scale); for pest or weed control at 500 g/ha: 500 g ai/ha, 0 to 100 scale, 0 is no effect, 100 is complete control, read-out: Galium plant response rating
# Summary of the method: as §2
# [8] = test system: ryegrass, Italian (Italian ryegrass, Lolium multiflorum); assay: Test A postemergence; details: Lolium multiflorum, post-emergence, 240 h, postemergence; for pest or weed control at 125 g/ha: 125 g ai/ha, visual injury vs untreated controls after approx. 10 d, 0 = no effect, 100 = complete control, read-out: Ryegrass, Italian plant response rating (0 to 100 scale); for pest or weed control at 500 g/ha: 500 g ai/ha, 0 to 100 scale, 0 is no effect, 100 is complete control, read-out: Ryegrass, Italian plant response rating
# Summary of the method: as §2
# [9] = test system: wheat (Triticum aestivum); assay: Test A postemergence; details: Triticum aestivum, post-emergence, 240 h, postemergence; for plant injury at 125 g/ha: 125 g ai/ha, visual injury vs untreated controls after approx. 10 d, 0 = no effect, 100 = complete control, read-out: Wheat plant response rating (0 to 100 scale)
# Summary of the method: as §2
# [10] = test system: barnyardgrass (Echinochloa crus-galli); assay: Test A postemergence; details: Echinochloa crus-galli, post-emergence, 240 h, postemergence; for pest or weed control at 125 g/ha: 125 g ai/ha, visual injury vs untreated controls after approx. 10 d, 0 = no effect, 100 = complete control, read-out: Barnyardgrass plant response rating (0 to 100 scale); for pest or weed control at 500 g/ha: 500 g ai/ha, 0 to 100 scale, 0 is no effect, 100 is complete control, read-out: Barnyardgrass plant response rating
# Summary of the method: as §2
# [11] = test system: blackgrass (Alopecurus myosuroides); assay: Test A postemergence; details: Alopecurus myosuroides, post-emergence, 240 h, postemergence; for pest or weed control at 125 g/ha: 125 g ai/ha, visual injury vs untreated controls after approx. 10 d, 0 = no effect, 100 = complete control, read-out: Blackgrass plant response rating (0 to 100 scale); for pest or weed control at 500 g/ha: 500 g ai/ha, 0 to 100 scale, 0 is no effect, 100 is complete control, read-out: Blackgrass plant response rating
# Summary of the method: as §2
# Kochia (Kochia scoparia) = assay: Test A postemergence; details: Bassia scoparia, post-emergence, 240 h, postemergence; for pest or weed control at 125 g/ha: 125 g ai/ha, visual injury vs untreated controls after approx. 10 d, 0 = no effect, 100 = complete control, read-out: Kochia plant response rating (0 to 100 scale); for pest or weed control at 500 g/ha: 500 g ai/ha, 0 to 100 scale, 0 is no effect, 100 is complete control, read-out: Kochia plant response rating
# Summary of the method: as §2
# corn (Zea mays) = assay: Test A postemergence; details: Zea mays, post-emergence, 240 h, postemergence; for plant injury at 125 g/ha: 125 g ai/ha, visual injury vs untreated controls after approx. 10 d, 0 = no effect, 100 = complete control, read-out: Corn plant response rating (0 to 100 scale); for plant injury at 500 g/ha: 500 g ai/ha, 0 to 100 scale, 0 is no effect, 100 is complete control, read-out: Corn plant response rating
# Summary of the method: as §2
# [12] = test system: giant foxtail (Setaria faberii); assay: Test A postemergence; details: Setaria faberi, post-emergence, 240 h, postemergence; for pest or weed control at 125 g/ha: 125 g ai/ha, visual injury vs untreated controls after approx. 10 d, 0 = no effect, 100 = complete control, read-out: Foxtail, Giant plant response rating (0 to 100 scale); for pest or weed control at 500 g/ha: 500 g ai/ha, 0 to 100 scale, 0 is no effect, 100 is complete control, read-out: Foxtail, Giant plant response rating
# Summary of the method: as §2
structure (smiles),measurement,setting,value
Cc1c(F)cccc1NC(=O)[C@H]1C(=O)N(C)C[C@@H]1c1ccc(F)cc1 [Compound 1235],pest or weed control at 250 g/ha,[1],100%
same,pest or weed control at 250 g/ha,[2],75%
same,pest or weed control at 250 g/ha,[3],90%
same,pest or weed control at 250 g/ha,rice (Oryra sativa),80%
same,pest or weed control at 125 g/ha,"[4]; visual injury rating, approximately 10 d",30%
same,pest or weed control at 500 g/ha,[4],90%
same,pest or weed control at 125 g/ha,[5],0%
same,pest or weed control at 500 g/ha,[5],50%
same,pest or weed control at 125 g/ha,[6],0%
same,pest or weed control at 500 g/ha,[6],30%
same,pest or weed control at 125 g/ha,[7],50%
same,pest or weed control at 500 g/ha,[7],70%
same,pest or weed control at 125 g/ha,[8],0%
same,pest or weed control at 500 g/ha,[8],30%
same,plant injury at 125 g/ha,[9],40%
same,pest or weed control at 125 g/ha,[10],90%
same,pest or weed control at 500 g/ha,[10],100%
same,pest or weed control at 125 g/ha,[11],30%
same,pest or weed control at 500 g/ha,[11],40%
same,pest or weed control at 125 g/ha,Kochia (Kochia scoparia),30%
same,pest or weed control at 500 g/ha,Kochia (Kochia scoparia),50%
same,plant injury at 125 g/ha,corn (Zea mays),70%
same,plant injury at 500 g/ha,corn (Zea mays),100%
same,pest or weed control at 125 g/ha,[12],80%
same,pest or weed control at 500 g/ha,[12],90%
CN1CC[C@H](c2cccc(C(F)(F)F)c2)[C@@H](C(=O)Nc2cccc(F)c2Cl)C1=O [Compound 1158],pest or weed control at 250 g/ha,[1],60%
same,pest or weed control at 250 g/ha,[2],0%
same,pest or weed control at 250 g/ha,[3],80%
same,pest or weed control at 250 g/ha,rice (Oryra sativa),0%
same,pest or weed control at 125 g/ha,[4]; approx. 10 d,0%
same,pest or weed control at 500 g/ha,[4],0%
same,pest or weed control at 125 g/ha,[5],0%
same,pest or weed control at 500 g/ha,[5],0%
same,pest or weed control at 125 g/ha,[6],0%
same,pest or weed control at 500 g/ha,[6],0%
same,pest or weed control at 125 g/ha,[7],20%
same,pest or weed control at 500 g/ha,[7],30%
same,pest or weed control at 125 g/ha,[8],30%
same,pest or weed control at 500 g/ha,[8],50%
same,plant injury at 125 g/ha,[9],30%
same,plant injury at 500 g/ha,"[9]; 500 g ai/ha, 0 to 100 scale, 0 is no effect, 100 is complete control, read-out: Wheat plant response rating",50%
same,pest or weed control at 125 g/ha,[10],90%
same,pest or weed control at 500 g/ha,[10],90%
same,pest or weed control at 125 g/ha,[11],20%
same,pest or weed control at 500 g/ha,[11],40%
same,pest or weed control at 125 g/ha,Kochia (Kochia scoparia),0%
same,pest or weed control at 500 g/ha,Kochia (Kochia scoparia),0%
same,plant injury at 125 g/ha,corn (Zea mays),20%
same,plant injury at 500 g/ha,corn (Zea mays),60%
same,pest or weed control at 125 g/ha,[12],80%
same,pest or weed control at 500 g/ha,[12],80%
